Here are results for six compounds from patent publication US7618989B2, “Tricyclic oxazolidone derivatives useful as PR modulators” (Wyeth, priority 2006, dated 2009).

In data set [1] the test system is alkaline phosphatase activity in T47D cells. In words: Effects of progestins and antiprogestins on alkaline phosphatase activity in T47D cells. Format: cell-based. To be noted: Homo sapiens, antagonist mode, in the presence of 1 nM progesterone, 24 h incubation, read-out: T47D Alkaline Phosphatase Activity IC50 (nM) or % inhibition. On the procedure: (1) Effects of Progestins and Antiprogestins on Alkaline Phosphatase Activity in T47D Cells.
• PURPOSE: To identify progestins or antiprogestins by determining a compound's effect on alkaline phosphatase activity in T47D cells. A. Reagents:
Culture medium: • DMEM:F12 (1:1) (GIBCO, BRL) supplemented with 5% (v/v) charcoal stripped fetal bovine serum (not heat-inactivated), 100 U/mL penicillin, 100 μg/mL streptomycin, and 2 mM the GlutaMax™ reagent (GIBCO, BRL).
Alkaline phosphatase assay buffer: • I. 0.1M Tris-HCl, pH 9.8, containing 0.2% the Triton® X-100 reagent • II. 0.1M Tris-HCl, pH 9.8, containing 4 mM p-nitrophenyl phosphate (Sigma). B. Cell Culture and Treatment:
Frozen T47D cells were thawed in a 37° C. water bath and diluted to 280,000 cells/mL in culture medium. To each well in a 96-well plate (Falcon, Becton Dickinson Labware), 180 μL of diluted cell suspension was added.
Twenty μL of reference or test compounds diluted in the culture medium was then added to each well. When testing for progestin antagonist activity, reference antiprogestins or test compounds were added in the presence of 1 nM progesterone. The cells were incubated at 37° C. in a 5% CO2/humidified atmosphere for 24 h.
NOTE: For high throughput screening, one concentration of each compound was tested at 0.3 μg/mL. Based on an average molecular weight of 300 g/mol for the compounds in the library, the concentration was approximately 1 μM. Subsequently, active compounds were tested in dose response assays to determine EC50 and IC50. C. Alkaline Phosphatase Enzyme Assay:
At the end of treatment, the medium was removed from the plate. Fifty μL of assay buffer I was added to each well. […]
For reference and test compounds, a dose response curve was generated for dose (X-axis) vs. the rate of enzyme reaction (slope) (Y-axis). […] EC50 or IC50 values were calculated from the retransformed values. […]
Progesterone and trimegestone were reference progestins and RU486 was the reference antiprogestin. All reference compounds were run in full dose response curves and the EC50 and IC50 values were calculated.

Regarding `C[C@@H]1COC(=O)N1c1nc(-c2ccc(Br)cc2)cs1` [Example 1, (4R)-3-[4-(4-Bromophenyl)-1,3-thiazol-2-yl]-4-methyl-1,3-oxazolidin-2-one], the melting point lay in the range of 197 to 199 °C. Compound `CCC1(CC)COC(=O)N1c1nc(-c2ccc(C#N)cc2)cs1` [Example 2, 4-[2-(4,4-Diethyl-2-oxo-1,3-oxazolidin-3-yl)-1,3-thiazol-4-yl]benzonitrile] gave a melting point of 145 to 147 °C. `CC1(C)COC(=O)N1c1nc(-c2cccc(C#N)c2)cs1` [Example 3, 3-[2-(4,4-dimethyl-2-oxo-1,3-oxazolidin-3-yl)-1,3-thiazol-4-yl]benzonitrile] had a melting point of 181 to 183 °C.

`CCC1(CC)COC(=O)N1c1nc2c(s1)CCc1cc(C#N)ccc1-2` [Example 5, 2-(4,4-Diethyl-2-oxo-1,3-oxazolidin-3-yl)-4,5-dihydronaphtho[1,2-d][1,3]thiazole-7-carbonitrile]: in data set [1], the concentration for half-maximal inhibition (IC50) was 5 nM.

For the compound `CC1(C)COC(=O)N1c1nc2c(s1)CCc1cc(C#N)ccc1-2` [Example 6, 2-(4,4-Dimethyl-2-oxo-1,3-oxazolidin-3-yl)-4,5-dihydronaphtho[1,2-d][1,3]thiazole-7-carbonitrile], the IC50 in data set [1] was 27.9 nM. With `CC1(C)COC(=O)N1c1nc2c(ccc3cc(C#N)ccc32)s1` [Example 7, 2-(4,4-Dimethyl-2-oxo-1,3-oxazolidin-3-yl)naphtho[1,2-d][1,3]thiazole-7carbonitrile], in data set [1], the half-maximal inhibitory concentration (IC50) came to 100 nM.

As a reminder, the melting point is the temperature, or range, at which the solid turns liquid. By IC50 is commonly meant the concentration needed to halve the response being measured.
